Measurements: paper PMC6950567, “Evaluation of Marine Diindolinonepyrane in Vitro and in Vivo: Permeability Characterization in Caco-2 Cells Monolayer and Pharmacokinetic Properties in Beagle Dogs” (Marine Drugs, 2019)
Read-outs that look alike come from different tables or passages of the source.

How the values were obtained:
[1] = Caco-2 cells monolayer absorption and bidirectional transport experiment; assay type: in vitro ADME, human; conditions: human; for Papp A→B at 2 h, 2 µM: read-out: Mean Papp AP to BL; for Papp B→A at 2 h, 2 µM: read-out: Mean Papp BL to AP; for recovery at 2 h: direction not specified, read-out: total recovery rate of control drugs
Description: (§1) The samples included three control drugs (fenoterol, propranolol, and digoxin) and 2,5-BHPA. […] For transfer in the AP→BL direction, 0.075 mL drug solution was added to the AP side as the supply pool, and 0.25 mL HBSS solution was added to the BL side as the receiving pool. In the BL→AP direction, 0.25 mL compound solution was added to the BL side as the supply pool, and 0.075 mL HBSS solution was added to the AP side as the receiving pool. The transwell plate was then cultured in an incubator at 37 °C for 2 h. Samples on the AP side and BL side were collected, respectively. Then, acetonitrile containing an internal label was added to each upper chamber to lyse transport membranes. The total recovery was calculated by collecting the amount of lead compound absorbed on the membrane surface or accumulated in the cell. Finally, the concentration of each sample was calculated as the ratio of the peak area between the compound and the inner target through mass spectrum analysis (API 4000).
(§2) Papp = (dCr/dt) × Vr/(A × C0)(2) where dCr/dt is the cumulative compound concentration per unit of time (µM/s); Vr is the volume in the receiving hole (mL); A is the transport membrane area; and C0 is the compound initiation concentration (µM).

Caco-2 cells monolayer = experiment: as above; assay type: in vitro ADME, human
Description: as §1, §2

[2] = Caco-2, 2 µM, 0.1% bull serum albumin added
[3] = 2 µM, 0.1% bull serum albumin added

## C[C@H]1O[C@@H](O[C@H]2[C@@H](O)C[C@H](O[C@H]3[C@@H](O)C[C@H](O[C@H]4CC[C@@]5(C)[C@H](CC[C@@H]6[C@@H]5C[C@@H](O)[C@]5(C)[C@@H](C7=CC(=O)OC7)CC[C@]65O)C4)O[C@@H]3C)O[C@@H]2C)C[C@H](O)[C@@H]1O [Digoxin, digoxin, reference compound]
[1]; [2]
  efflux ratio at 2 h, 2 µM: 485
  Papp A→B at 2 h, 2 µM: 0.023 ± 0.001 ×10⁻⁶ cm/s
  Papp B→A at 2 h, 2 µM: 10.4 ± 0.911 ×10⁻⁶ cm/s
[1]; Caco-2, 2 μM, no BSA
  efflux ratio at 2 h, 2 µM: 260
[1]; Caco-2, 2 μM, no BSA, 2 h
  Papp A→B at 2 h, 2 µM: 0.033 ± 0.003 ×10⁻⁶ cm/s
  Papp B→A at 2 h, 2 µM: 9.05 ± 0.62 ×10⁻⁶ cm/s
[1]; Caco-2, text summary, no BSA
  recovery at 2 h: > 83%
Caco-2 cells monolayer; [3]
  Recoveries AP to BL: 84.14 ± 3.13%
  Recoveries BL to AP: 93.35 ± 3.56%
  Total Recoveries AP to BL: 85.37 ± 3.52%
  Total Recoveries BL to AP: 93.43 ± 4.63%
Caco-2 cells monolayer; 2 μM, no BSA
  Recoveries AP to BL: 83.66 ± 3.14%
  Recoveries BL to AP: 82.87 ± 4.38%
  Total Recoveries AP to BL: 86.44 ± 3.51%
  Total Recoveries BL to AP: 83.31 ± 2.40%

## CC(Cc1ccc(O)cc1)NCC(O)c1cc(O)cc(O)c1 (centres unmarked) [Fenoterol, fenoterol, reference compound]
[1]; [2]
  Papp A→B at 2 h, 2 µM: 0.091 ± 0.012 ×10⁻⁶ cm/s
[1]; Caco-2, 2 μM, no BSA, 2 h
  Papp A→B at 2 h, 2 µM: 0.055 ± 0.008 ×10⁻⁶ cm/s
[1]; Caco-2, no BSA
  recovery at 2 h: > 83%
Caco-2 cells monolayer; [3]
  Recoveries AP to BL: 94.38 ± 5.14%
  Total Recoveries AP to BL: 96.16 ± 6.72%
Caco-2 cells monolayer; 2 μM, no BSA
  Recoveries AP to BL: 87.67 ± 1.24%
  Total Recoveries AP to BL: 90.92 ± 4.23%

## CC(C)NCC(O)COc1cccc2ccccc12 (centres unmarked) [Propranolol, propranolol, reference compound]
Caco-2 cells monolayer; Caco-2
  total recovery rate AP→BL: 100%
  total recovery rate of control drugs: more than 83%

## NNC(=O)NN1C(=O)c2cc(S(=O)(=O)[O-])cc3c(N)c(S(=O)(=O)[O-])cc(c23)C1=O.[Li+].[Li+] [fluorescence yellow]
Caco-2 cell model
  Papp of fluorescence yellow: 0.15 ± 0.027 × 10^−6 cm·s^−1
  transmittance: 0.04 ± 0.005%
